US20180153995A1, “USE OF ANTIMICROBIAL POLYMERS FOR RE-SENSITIZATION OF MICROORGANISMS UPON EMERGENCE OF RESISTANCE TO ANTI-MICROBIAL AGENTS” (Technion Research & Development Foundation Limited, priority 2008, published 2018)
Read-outs that look alike come from different tables or passages of the source.

Columns and labels:
[1] = system: P. mirabilis 1285; assay type: cell-based, Proteus mirabilis
[2] = system: S. aureus 43300; experiment: Antibiotic MIC by microdilution with or without sub-MIC polymer; assay type: cell-based, Staphylococcus aureus
[3] = system: S. aureus 15877; experiment: as above; assay type: cell-based, Staphylococcus aureus
Description: MICs were determined by microdilution susceptibility testing in 96-well plates (Nunc) using inocula of 10^5 bacteria per ml. One hundred (100) μl of a bacterial suspension were added to 100 μl of culture medium (control) or to 100 μl of culture medium containing various antibiotic and C12(5-ene)KKNC12KNH2 (SEQ ID NO: 2) concentrations in 2-fold serial dilutions. Inhibition of proliferation was determined by optical density measurements at 620 nm after an incubation period of 24 hours at 37° C.

[4] = system: P. mirabilis 1285; assay type: cell-based, Proteus mirabilis; details: no polymer (None), Table 12
Description: (§1) MICs were determined by microdilution susceptibility testing in 96-well plates (by Nunc) using inocula of 10^5 bacteria per ml. Cell populations were evaluated by optical density measurements at 620 nm and were calibrated against a set of standards. Hundred (100) μl of a bacterial suspension were added to 100 μl of culture medium (control) or to 100 μl of culture medium containing various polymer concentrations in 2-fold serial dilutions. Inhibition of proliferation was determined by optical density measurements at 620 nm after an incubation period of 24 hours at 37° C.
(§2) 100 μl of a bacterial suspension were added to 100 μl of culture medium (control) or to 100 μl of culture medium containing various antibiotic and C14(9-ene)KKNC12KNH2 (SEQ ID NO: 5) concentrations in 2-fold serial dilutions. Inhibition of proliferation was determined by optical density measurements at 620 nm after an incubation period of 24 hours at 37° C.

[5] = system: MRSA 15852; assay type: cell-based, Staphylococcus aureus; details: S. aureus 15852
Description: The fractionary inhibitory (FIC) concentration index for combinations of two antimicrobial agents was calculated as follows: FIC index=FICA+FICB=A/MICA+B/MICB where A and B are the MIC values of agent A and agent B in the combination, MICA and MICB are the MICs of agent A and agent B alone, and FICA and FICB are the FICs of agent A and agent B.
The FIC indexes were interpreted as follows: less than 0.5 indicates a clear re-sensitizing effect; from 0.5 to 4 indicates a marginal or null re-sensitizing effect; and over 4 indicates antagonism.

[6] = system: E. coli 14384; experiment: Antibiotic MIC by microdilution with or without sub-MIC polymer; assay type: cell-based, Escherichia coli; details: E. coli 14384; for Antibiotic MIC, None: antibiotic alone (Table 15); for Antibiotic MIC in presence of C12K(NC8K)7NH2 (SEQ ID NO: 4), +½ MIC: polymer at ½ of its MIC; for Antibiotic MIC in presence of C12K(NC8K)7NH2 (SEQ ID NO: 4), +⅓ MIC: polymer at ⅓ of its MIC
Description: as §1, §2

[7] = system: P. aeruginosa 8732; experiment: as above; assay type: cell-based, Pseudomonas aeruginosa; details: P. aeruginosa 8732
Description: as §1
Inhibition of proliferation was determined by optical density measurements at 620 nm after an incubation period of 24 hours at 37° C.

[8] = system: E. coli N281 (L22 mutation); assay type: cell-based, Escherichia coli; details: E. coli N281 L22 mutation
[9] = +¼ MIC (1.6 μM) C12K(KNC12K)2NH2
[10] = +½ MIC (3.12 μM) C12K(KNC12K)2NH2
[11] = +⅓ MIC (2.1 μM) C12K(KNC12K)2NH2
[12] = +¼ MIC (1.6 μM) C12(5-ene)KKNC12KNH2
[13] = +¼ MIC (1.6 μM) C16(9-ene)KKNC12KNH2
[14] = +½ MIC (3.12 μM) C16(9-ene)KKNC12KNH2
[15] = +⅓ MIC (2.1 μM) C12(5-ene)KKNC12KNH2
[16] = +⅓ MIC (2.1 μM) C16(9-ene)KKNC12KNH2
[17] = +½ MIC (3.12 μM) C12(5-ene)KKNC12KNH2
[18] = +¼ MIC (1.6 μM) C14(9-ene)KKNC12KNH2
[19] = +½ MIC (3.12 μM) C14(9-ene)KKNC12KNH2
[20] = +⅓ MIC (2.1 μM) C14(9-ene)KKNC12KNH2

## O=C(O)c1cn(C2CC2)c2cc(N3CCNCC3)c(F)cc2c1=O [Ciprofloxacin, ciprofloxacin]
[1]; [9]
  Antibiotic MIC: 32 µg/mL
[1]; [10]
  Antibiotic MIC: 8 µg/mL
[1]; [11]
  Antibiotic MIC: 16 µg/mL
[2]; [12]
  Antibiotic MIC: 0.25 µg/mL
[2]; +¼ MIC (1.6 μM) C12KKNC12KNH2
  Antibiotic MIC: 0.5 µg/mL
[2]; [13]
  Antibiotic MIC: 0.25 µg/mL
[2]; [10]
  Antibiotic MIC: 0.13 to 0.25 µg/mL
[2]; +½ MIC (3.12 μM) C12KKNC12KNH2
  Antibiotic MIC: 0.25 µg/mL
[2]; [14]
  Antibiotic MIC: 0.125 µg/mL
[2]; [15]
  Antibiotic MIC: 0.125 µg/mL
[2]; +⅓ MIC (2.1 μM) C12KKNC12KNH2
  Antibiotic MIC: 0.5 µg/mL
[2]; [16]
  Antibiotic MIC: 0.25 µg/mL
[3]; [12]
  Antibiotic MIC: 4 µg/mL
[3]; [17]
  Antibiotic MIC: 4 µg/mL
[3]; [15]
  Antibiotic MIC: 4 µg/mL
[3]; no polymer (None), Table 8
  Antibiotic MIC: 4 µg/mL
[4]
  Antibiotic MIC: 32 µg/mL
[5]; [12]
  Antibiotic MIC: 16 µg/mL
[5]; +¼ MIC (1.6 μM) C12KKNC12KNH2
  Antibiotic MIC: 32 µg/mL
[5]; [17]
  Antibiotic MIC: 16 µg/mL
[5]; +½ MIC (3.12 μM) C12KKNC12KNH2
  Antibiotic MIC: 32 µg/mL
[5]; [15]
  Antibiotic MIC: 16 µg/mL
[5]; +⅓ MIC (2.1 μM) C12KKNC12KNH2
  Antibiotic MIC: 32 µg/mL
[5]; no polymer (None), Table 8
  Antibiotic MIC: 16 µg/mL
[5]; no polymer (None), Table 11
  Antibiotic MIC: 32 µg/mL
[6]
  Antibiotic MIC, None: <0.03 µg/mL
[6]; no polymer (None), Table 9
  Antibiotic MIC: <0.03 µg/mL
[6]; no polymer (None), Table 14
  Antibiotic MIC: <0.03 µg/mL
[7]; no polymer (None), Table 10
  Antibiotic MIC: <0.03 µg/mL

## CC[C@H]1OC(=O)[C@H](C)[C@@H](O[C@H]2C[C@@](C)(OC)[C@@H](O)[C@H](C)O2)[C@H](C)[C@@H](O[C@@H]2O[C@H](C)C[C@H](N(C)C)[C@H]2O)[C@](C)(O)C[C@@H](C)C(=O)[C@H](C)[C@@H](O)[C@]1(C)O [Erythromycin, erythromycin]
[8]; +¼ MIC C12K(NC8K)5NH2
  Antibiotic MIC: 512 µg/mL
[8]; +¼ MIC C12K(NC8K)7NH2
  Antibiotic MIC: >512-512 μg/ml
[8]; +½ MIC C12K(NC8K)5NH2
  Antibiotic MIC: 16 to 32 µg/mL
[8]; +⅓ MIC C12K(NC8K)7NH2
  Antibiotic MIC: 512 µg/mL
[8]; no OAK, Table 18
  Antibiotic MIC: >512 µg/mL
[8]; no OAK, Table 19
  Antibiotic MIC: >512 µg/mL
[2]; [12]
  Antibiotic MIC: 512 µg/mL
[2]; [9]
  Antibiotic MIC: >512 µg/mL
[2]; +¼ MIC (1.6 μM) C12KKNC12KNH2
  Antibiotic MIC: >512 µg/mL
[2]; [18]
  Antibiotic MIC: >512 µg/mL
[2]; [13]
  Antibiotic MIC: 512 µg/mL
[2]; [10]
  Antibiotic MIC: >512 µg/mL
[2]; +½ MIC (3.12 μM) C12KKNC12KNH2
  Antibiotic MIC: >512 µg/mL
[2]; [19]
  Antibiotic MIC: >512 µg/mL
[2]; [14]
  Antibiotic MIC: 512 µg/mL
[2]; [15]
  Antibiotic MIC: 512 µg/mL
[2]; [11]
  Antibiotic MIC: >512 µg/mL
[2]; +⅓ MIC (2.1 μM) C12KKNC12KNH2
  Antibiotic MIC: >512 µg/mL
[2]; [20]
  Antibiotic MIC: >512 µg/mL
[2]; [16]
  Antibiotic MIC: 512 µg/mL
[2]; no polymer (None), Table 8
  Antibiotic MIC: 512 µg/mL
[2]; no polymer (None), Table 9
  Antibiotic MIC: >512 µg/mL
[2]; no polymer (None), Table 10
  Antibiotic MIC: 512 µg/mL
[2]; no polymer (None), Table 11
  Antibiotic MIC: >512 µg/mL
[2]; no polymer (None), Table 12
  Antibiotic MIC: >512 µg/mL
[3]; [12]
  Antibiotic MIC: >512 µg/mL
[3]; [17]
  Antibiotic MIC: >512 µg/mL
[3]; [15]
  Antibiotic MIC: >512 µg/mL
[3]; no polymer (None), Table 8
  Antibiotic MIC: >512 µg/mL
[5]; [12]
  Antibiotic MIC: >512 µg/mL
[5]; +¼ MIC (1.6 μM) C12KKNC12KNH2
  Antibiotic MIC: >512 µg/mL
[5]; [17]
  Antibiotic MIC: >512 µg/mL
[5]; +½ MIC (3.12 μM) C12KKNC12KNH2
  Antibiotic MIC: >512 µg/mL
[5]; [15]
  Antibiotic MIC: >512 µg/mL
[5]; +⅓ MIC (2.1 μM) C12KKNC12KNH2
  Antibiotic MIC: >512 µg/mL
[5]; no polymer (None), Table 8
  Antibiotic MIC: >512 µg/mL
[5]; no polymer (None), Table 11
  Antibiotic MIC: >512 µg/mL
[6]; +¼ MIC C12K(NC8K)5NH2
  Antibiotic MIC: 32 to 64 µg/mL
[6]; [19]
  Antibiotic MIC: 32 µg/mL
[6]; +½ MIC C12K(NC8K)5NH2
  Antibiotic MIC: 4 to 8 µg/mL
[6]; +⅓ MIC C12K(NC8K)5NH2
  Antibiotic MIC: 32 µg/mL
[6]
  Antibiotic MIC in presence of C12K(NC8K)7NH2 (SEQ ID NO: 4), +½ MIC: 8 to 16 µg/mL
  Antibiotic MIC in presence of C12K(NC8K)7NH2 (SEQ ID NO: 4), +⅓ MIC: 16 to 32 µg/mL

## CN(C)[C@@H]1C(O)=C(C(N)=O)C(=O)[C@@]2(O)C(O)=C3C(=O)c4c(O)cccc4[C@@](C)(O)[C@H]3C[C@@H]12 [Tetracycline, tetracycline]
[2]; [9]
  Antibiotic MIC: 0.5 µg/mL
[2]; +¼ MIC (1.6 μM) C12KKNC12KNH2
  Antibiotic MIC: 0.5 µg/mL
[2]; [13]
  Antibiotic MIC: 0.25 µg/mL
[2]; [10]
  Antibiotic MIC: 0.5 µg/mL
[2]; +½ MIC (3.12 μM) C12KKNC12KNH2
  Antibiotic MIC: 0.5 µg/mL
[2]; [11]
  Antibiotic MIC: 0.5 µg/mL
[2]; +⅓ MIC (2.1 μM) C12KKNC12KNH2
  Antibiotic MIC: 0.5 µg/mL
[3]; [12]
  Antibiotic MIC: 1 µg/mL
[3]; [17]
  Antibiotic MIC: 0.5 to 1 µg/mL
[3]; [15]
  Antibiotic MIC: 1 µg/mL
[3]; no polymer (None), Table 8
  Antibiotic MIC: 1 µg/mL
[6]; [19]
  Antibiotic MIC: 32 µg/mL
[6]; +½ MIC C12K(NC8K)5NH2
  Antibiotic MIC: 32 to 64 µg/mL
[6]
  Antibiotic MIC in presence of C12K(NC8K)7NH2 (SEQ ID NO: 4), +½ MIC: 64 µg/mL

## gentamicin
[1]; [9]
  Antibiotic MIC: 32 µg/mL
[1]; [10]
  Antibiotic MIC: 32 µg/mL
[1]; [11]
  Antibiotic MIC: 32 µg/mL
[2]; [13]
  Antibiotic MIC: 64 µg/mL
[2]; [14]
  Antibiotic MIC: 32 to 64 µg/mL
[2]; [16]
  Antibiotic MIC: 64 µg/mL
[4]
  Antibiotic MIC: 32 µg/mL
[6]; [18]
  Antibiotic MIC: 4 µg/mL
[6]; [19]
  Antibiotic MIC: 2 µg/mL
[6]; +½ MIC C12K(NC8K)5NH2
  Antibiotic MIC: 1 to 2 µg/mL
[6]; [20]
  Antibiotic MIC: 4 µg/mL
[6]
  Antibiotic MIC, None: 4 µg/mL
  Antibiotic MIC in presence of C12K(NC8K)7NH2 (SEQ ID NO: 4), +½ MIC: 2 µg/mL
  Antibiotic MIC in presence of C12K(NC8K)7NH2 (SEQ ID NO: 4), +⅓ MIC: 2 to 4 µg/mL
[6]; no polymer (None), Table 9
  Antibiotic MIC: 4 µg/mL
[6]; no polymer (None), Table 14
  Antibiotic MIC: 4 µg/mL
[6]; polymer at ¼ of its MIC
  Antibiotic MIC in presence of C12K(NC8K)7NH2 (SEQ ID NO: 4), +¼ MIC: 4 µg/mL
[7]; [13]
  Antibiotic MIC: 4 µg/mL
[7]; [14]
  Antibiotic MIC: 4 µg/mL
[7]; [16]
  Antibiotic MIC: 4 µg/mL
[7]; no polymer (None), Table 10
  Antibiotic MIC: 4 µg/mL
